# Assay results from patent publication US4871766A, “Oil-in-water pesticidal emulsion” (priority 1986, dated 1989).
# Experiments:
# [1] = Solubility of active ingredient in hydrocarbon at 0° C.; format: physicochemical
# [2] = Behaviour of active ingredient on storage at 0° C.; format: physicochemical; settings: stored at 0° C. for a long time
structure (smiles),measurement,setting,value
"CCC(C)c1ccccc1OC(=O)NC (stereo not drawn) [active ingredient (a), 2-Sec-butylphenyl N--methylcarbamate]",solubility in the hydrocarbon (5),[1]; hydrocarbon (5),≥ 50 wt. %
"CC1(C)C(C=C(Cl)Cl)C1C(=O)OC(C#N)c1cccc(Oc2ccccc2)c1 (stereo not drawn) [active ingredient (b), α-Cyano-3-phenoxybenzyl 3-(2,2-dichlorovinyl)-2,2-dimethylcyclopropanecarboxylate]",crystallization of the active ingredient on storage,[2],crystallizes in part
"CC1(C)C(C=C(Cl)Cl)C1C(=O)OCc1cccc(Oc2ccccc2)c1 (stereo not drawn) [active ingredient (d), 3-Phenoxybenzyl 3-(2,2-dichlorovinyl)-2,2-dimethylcyclopropanecarboxylate]",solubility in the hydrocarbon (4),[1]; hydrocarbon (4),≥ 50 wt. %
"CC1(C)C(C(=O)OC(C#N)c2cccc(Oc3ccccc3)c2)C1(C)C (stereo not drawn) [active ingredient (e), α-Cyano-3-phenoxybenzyl 2,2,3,3-tetramethylcyclopropanecarboxylate]",solubility in the hydrocarbon (3),[1],≥ 50 wt. %
"CC(C)C(C(=O)OC(C#N)c1cccc(Oc2ccccc2)c1)c1ccc(Cl)cc1 (stereo not drawn) [active ingredient (f), α-Cyano-3-phenoxybenzyl 2-(4-chlorophenyl)-3-methylbutyrate]",solubility in the hydrocarbon (3),[1],≥ 50 wt. %
"CC(COc1ccc(Oc2ccccc2)cc1)Oc1ccccn1 (stereo not drawn) [active ingredient (h), 2-{1-Methyl-2-(4-phenoxyphenoxy)ethoxy}pyridine]",solubility in the hydrocarbon (6),[1]; hydrocarbon (6),10 wt. %
